Test results from patent US20150374676A1, “HELICASE-PRIMASE INHIBITORS FOR USE IN A METHOD OF TREATING ALZHEIMER'S DISEASE” (AICURIS GMBH & CO. KG, priority 2013, published 2015).
Read-outs that look alike come from different tables or passages of the source.

Assay: Single-dose escalation pharmacokinetics in volunteers
Format: in vivo, human
Details: for AUC(0-t): read-out: AUC0-24h
Excerpt: Exposure of the free base form of N-[5-(aminosulfonyl)-4-methyl-1,3-thiazol-2-yl]-N-methyl-2-[4-(2-pyridinyl)-phenyl]acetamide to the human body may be measured by high pressure liquid chromatography (HPLC) by looking at different pharmacokinetic parameters in suitable bodily fluids such as for instance blood plasma and urine, the most common parameters being the Cmax, the so-called area under the curve (AUC), and the terminal half-life (t1/2Z). Hereto, the person skilled in the art understands that said parameters are determined by using adequate bioanalytical methods with adequate sensitivity, specificity, ruggedness, stability and repeatability, as for instance a qualified liquid chromatography triple quad mass spectrometry based method coupled with a suitable extraction method for the separation of the analyte from, e.g. the blood plasma.
Therefore, pharmacokinetic studies in human subjects were undertaken following both single and multiple dose administrations of the crystalline mono mesylate monohydrate salt of N-[5-(aminosulfonyl)-4-methyl-1,3-thiazol-2-yl]-N-methyl-2-[4-(2-pyridinyl)phenyl]acetamide, wherein the particle size distribution is preferably defined by d(0.1) from 2 to 100 μm, d(0.5) from 30 to 210 μm and d(0.9) from 70 to 400 μm with a specific surface area of the particles less than 1.0 m^2/g, and more preferably defined by d(0.1) from 10 to 75 μm, d(0.5) from 100 to 175 μm, d(0.9) from 200 to 350 μm with a specific surface area of the particles less than 0.3 m^2/g.
Single oral doses of the crystalline mono mesylate monohydrate salt of N-[5-(aminosulfonyl)-4methyl1,3thiazol-2-yl]-N-methyl-2-[4-(2-pyridinyl)phenyl]acetamide using the formulations in accordance with example a and Table a, were administered to six volunteers per dose step. The overall shape of the plasma concentrations vs. time profiles were similar across all doses applied (see FIG. 4 and FIG. 6).
Table b: Pharmacokinetic parameters after ascending single oral doses of crystalline mono mesylate monohydrate salt of N-[5-(aminosulfonyl)-4-methyl-1,3-thiazol-2-yl]-N-methyl-2-[4-(2-pyridinyl)phenyl]acetamide in the formulations in accordance with table a wherein the particle size distribution is preferably defined by d(0.1) from 2 to 100 μm, d(0.5) from 30 to 210 μm and d(0.9) from 70 to 400 μm with a specific surface area of the particles less than 1.0 m^2/g, and more preferably defined by d(0.1) from 10 to 75 μm, d(0.5) from 100 to 175 μm, d(0.9) from 200 to 350 μm with a specific surface area of the particles less than 0.3 m^2/g.
AUC0-∞: Area under the analyte vs. time concentration from time of administration up to infinity, calculated as
wherein AUC0-last is defined as the area under the analyte vs. time concentration up to time of the last qualifiable concentration, calculated by linear up/log down summation and Clast is defined as last quantifiable observed analyte concentration. λz is the apparent terminal elimination rate constant, determined by linear regression of terminal points of In-linear analyte concentration-time curve.
Cmax is the maximal observed analyte concentration and tmax is the time to reach Cmax;
t1/2z is defined as the apparent terminal elimination half-life, calculated as
MRT: Mean Residence Time; calculated AUMC divided by AUC, wherein AUMC is the area under the first moment of the concentration-time curve from zero up to ∞ with extrapolation of the terminal phase and AUC is the area under the concentration-time curve from zero up to ∞ with extrapolation of the terminal phase.
CL/F refers to the clearance after oral administration of a drug and Ae refers to the amount of drug excreted in the urine.

CS(=O)(=O)O.Cc1nc(N(C)C(=O)Cc2ccc(-c3ccccn3)cc2)sc1S(N)(=O)=O [mono mesylate monohydrate salt, N-[5-(aminosulfonyl)-4-methyl-1,3-thiazol-2-yl]-N-methyl-2-[4-(2-pyridinyl)-phenyl]acetamide mono methanesulfonic acid monohydrate]
t1/2z on average (40 mg dosage as free base equivalent, single oral dose): 72 ± 3 h | t1/2z on average (80 mg dosage as free base equivalent, single oral dose): 74 ± 5 h | t1/2z on average (160 mg dosage as free base equivalent, single oral dose): 63 ± 6 h | t1/2z on average (240 mg dosage as free base equivalent, single oral dose): 64 ± 5 h | t1/2z on average (320 mg dosage as free base equivalent, single oral dose): 57 ± 3 h | t1/2z on average (400 mg dosage as free base equivalent, single oral dose): 57 ± 4 h | t1/2z on average (480 mg dosage as free base equivalent, single oral dose): 53 ± 4 h | MRT (female, plasma, single oral dose 80 mg free base equivalent, females, human, mean, n = 6): 77 h | Tmax (female, plasma, single oral dose 80 mg free base equivalent, females, human, median, n = 6, read-out: tmax): 4 h | AUC(0-inf) (female, single oral dose 80 mg free base equivalent, females, human, mean, n = 6, free base in plasma): 96200 ng·h/mL | Cmax (female, single oral dose 80 mg free base equivalent, females, human, mean, n = 6, free base in plasma, read-out: Cmax): 2000 ng/mL | AUC(0-t) (human, plasma, 80 mg dosage as free base equivalent, single oral dose): 21900 ± 2060 ng·h/mL | Cmax (human, plasma, 80 mg dosage as free base equivalent, single oral dose, read-out: mean maximum blood plasma concentration (mean Cmax) of the free base): 1310 ± 125 ng/mL | AUC(0-t) (human, plasma, 160 mg dosage as free base equivalent, single oral dose): 40500 ± 16700 ng·h/mL | Cmax (human, plasma, 160 mg dosage as free base equivalent, single oral dose, read-out: mean maximum blood plasma concentration (mean Cmax) of the free base): 2610 ± 1340 ng/mL | AUC(0-t) (human, plasma, 240 mg dosage as free base equivalent, single oral dose): 59600 ± 12800 ng·h/mL | Cmax (human, plasma, 240 mg dosage as free base equivalent, single oral dose, read-out: mean maximum blood plasma concentration (mean Cmax) of the free base): 3600 ± 752 ng/mL | AUC(0-t) (human, plasma, 320 mg dosage as free base equivalent, single oral dose): 76200 ± 27600 ng·h/mL | Cmax (human, plasma, 320 mg dosage as free base equivalent, single oral dose, read-out: mean maximum blood plasma concentration (mean Cmax) of the free base): 4650 ± 1810 ng/mL | AUC(0-t) (human, plasma, 400 mg dosage as free base equivalent, single oral dose): 105000 ± 25700 ng·h/mL | Cmax (human, plasma, 400 mg dosage as free base equivalent, single oral dose, read-out: mean maximum blood plasma concentration (mean Cmax) of the free base): 6930 ± 1660 ng/mL | AUC(0-t) (human, plasma, 480 mg dosage as free base equivalent, single oral dose): 113000 ± 34300 ng·h/mL | Cmax (human, plasma, 480 mg dosage as free base equivalent, single oral dose, read-out: mean maximum blood plasma concentration (mean Cmax) of the free base): 6920 ± 2190 ng/mL | AUC(0-t) (male, human, plasma, 40 mg dosage as free base equivalent, single oral dose): 10100 ± 3110 ng·h/mL | Cmax (male, human, plasma, 40 mg dosage as free base equivalent, single oral dose, read-out: mean maximum blood plasma concentration (mean Cmax) of the free base): 608 ± 184 ng/mL | MRT (male, plasma, single oral dose 80 mg free base equivalent, males, human, mean, n = 6): 94 h | Tmax (male, plasma, single oral dose 80 mg free base equivalent, males, human, median, n = 6, read-out: tmax): 2.5 h | AUC(0-inf) (male, single oral dose 80 mg free base equivalent, males, human, mean, n = 6, free base in plasma): 87200 ng·h/mL | Cmax (male, single oral dose 80 mg free base equivalent, males, human, mean, n = 6, free base in plasma, read-out: Cmax): 1310 ng/mL | MRT (plasma, single oral dose 5 mg free base equivalent, human, mean, n = 6): 117 h | Tmax (plasma, single oral dose 5 mg free base equivalent, human, median, n = 6, read-out: tmax): 4 h | MRT (plasma, single oral dose 10 mg free base equivalent, human, mean, n = 6): 116 h | Tmax (plasma, single oral dose 10 mg free base equivalent, human, median, n = 6, read-out: tmax): 1.5 h | MRT (plasma, single oral dose 20 mg free base equivalent, human, mean, n = 6): 105 h | Tmax (plasma, single oral dose 20 mg free base equivalent, human, median, n = 6, read-out: tmax): 2.77 h | MRT (plasma, single oral dose 40 mg free base equivalent, human, mean, n = 6): 94 h | Tmax (plasma, single oral dose 40 mg free base equivalent, human, median, n = 6, read-out: tmax): 3.5 h | MRT (plasma, single oral dose 160 mg free base equivalent, human, mean, n = 6): 83 h | Tmax (plasma, single oral dose 160 mg free base equivalent, human, median, n = 6, read-out: tmax): 3.5 h | MRT (plasma, single oral dose 240 mg free base equivalent, human, mean, n = 6): 82 h | Tmax (plasma, single oral dose 240 mg free base equivalent, human, median, n = 6, read-out: tmax): 4 h | MRT (plasma, single oral dose 320 mg free base equivalent, human, mean, n = 6): 70 h | Tmax (plasma, single oral dose 320 mg free base equivalent, human, median, n = 6, read-out: tmax): 2.25 h | MRT (plasma, single oral dose 400 mg free base equivalent, human, mean, n = 6): 64 h | Tmax (plasma, single oral dose 400 mg free base equivalent, human, median, n = 6, read-out: tmax): 4.25 h | MRT (plasma, single oral dose 480 mg free base equivalent, human, mean, n = 6): 72 h | Tmax (plasma, single oral dose 480 mg free base equivalent, human, median, n = 6, read-out: tmax): 3.25 h | MRT (plasma, single oral dose 600 mg free base equivalent, human, mean, n = 6): 65 h | Tmax (plasma, single oral dose 600 mg free base equivalent, human, median, n = 6, read-out: tmax): 4.25 h | Tmax (plasma, single oral doses 5-600 mg free base equivalent, human, no obvious relation to dose, read-out: median tmax, range over doses): 1.5 to 4.25 h | half-life (plasma, single oral doses 5-600 mg free base equivalent, human, read-out: mean terminal elimination half-life (t1/2z), range over doses): 52 to 85 h | gender-related difference in exposure (single dose of 80 mg as free base equivalent, after normalization to body weight): No clinical relevant gender-related difference in exposure | exposure as shown by AUC0-∞ at the highest dose (single dose of 600 mg as free base equivalent, human): did not cause any further rise of exposure | dose dependence of maximum plasma concentrations (single doses from 5 mg to 400 mg as free base equivalent, human): linearly related to doses | dose dependence of AUC0-∞ (single doses from 5 mg to 480 mg as free base equivalent, human): dose-proportional increase
